Results as given in patent US12291504B2 (University of Pittsburgh—Of the Commonwealth System of …, priority 2018, dated 2025).
Like-named read-outs stand apart in the source and are kept apart here.

Legend:
SULT1A1 = SULT1A1 (Homo sapiens, UniProt P50225); test: SULT1A1 inhibition, 1-HP initial-rate assay; type: biochemical; details: ND = inhibition was not detected at 30 μM compound, parentheses one standard error; for inhibition: read-out: SULT1A1 Enzyme Inhibition at Saturation/%
Description: (§1) Inhibition studies. Inhibition parameters were determined under conditions identical to those described above (see, Initial-Rate Studies) except that [1-HP] was increased to 5.0 μM (˜61×Km) and inhibitor concentration was varied between 0.20-20×Ki. Ki was obtained using a least-squares fit to the following partial inhibition equation (25,28): v=kcat·(Ki+(1/kcat inh)·[I])/(Ki+[I]), where kcat inh is enzyme turnover at saturating substrates and allosteric inhibitor.
as §1, with “(47,50): V/Vax=(Ki+α·[I])/(Ki+[I]),” for “(25,28): v=kcat·(Ki+(1/kcat inh)·[I])/(Ki+[I]),”, “α” for “kcat inh”, “is percentage of” for “is”, “turnover remaining” for “turnover”

SULT1A3 [1] = target: T1, SULT1A3 (Homo sapiens, UniProt P0DMM9); test: SULT1A3 inhibition studies, 1-HP initial-rate fluorescence assay; type: biochemical; parameters: Wild-type and mutant SULT1A3 coding regions were inserted into a pGEX-6P expression vector; N-His/GST/MBP triple-tag (N, cleaved yes); made in house; host or cells: E. coli BL21(DE3); inhibition: dose or concentration left out as unconfirmed; details: for inhibition: read-out: SULT1A3 Enzyme Inhibition at Saturation/%
T1 sequence (P0DMM9 whole entry): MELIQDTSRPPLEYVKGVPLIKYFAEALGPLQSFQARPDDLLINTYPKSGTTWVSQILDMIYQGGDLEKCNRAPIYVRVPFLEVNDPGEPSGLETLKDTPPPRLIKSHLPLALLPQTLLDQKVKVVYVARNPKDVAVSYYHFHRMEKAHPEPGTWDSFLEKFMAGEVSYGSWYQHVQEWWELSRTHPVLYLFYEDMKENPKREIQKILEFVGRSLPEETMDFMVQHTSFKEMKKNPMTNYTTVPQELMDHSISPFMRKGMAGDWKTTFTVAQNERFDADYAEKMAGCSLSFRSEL
Description: The initial rates of SULT catalyzed 1-HP sulfonation are plotted as a function of inhibitor concentration, and are normalized relative to [inhibitor]=0. Enzyme activity was monitored by the sulfonation dependent change in 1-HP fluorescence (λex=325 nm, λem=370 nm). Less than 5% of the concentration-limiting substrate converted at the reaction endpoint was consumed during initial-rate measurements. Each point is the average of three independent determinations. Conditions: SULT (20 nM, active sites), PAPS (0.50 mM, 17×Km), 1-HP (5.0 μM, 61×Km), KPO4 (50 mM), pH 7.5, 25±2° C.
(§2) Initial-Rate Studies. Initial-rate parameters for the labeled or mutant SULT1A3 constructs were determined using a previously described 1-HP assay (25). Briefly, reactions were initiated by addition of PAPS (0.50 mM, 17×Km) to a solution containing enzyme (20 nM, active sites), 1-HP (2.0 μM, ˜24×Km), and KPO4 (50 mM), pH 7.5, 25±2° C. Reactions were monitored via fluorescence change associated with the conversion of 1-HP to 1-HP-S (λex=325 nm, λem=370 nm). Keq for the 1-HP sulfonation reaction is −250. Given the reaction conditions outlined above, ≥99% of 1-HP is converted to 1-HP-S, and ˜0.4% of PAPS is converted to PAP at equilibrium. […] Reaction progress curves were analyzed to obtain initial-rate parameters as described previously (26,27).
as §1
as §2, with “(47).” for “(25).”, “˜250.” for “−250.”, “(48,49).” for “(26,27).”
as §1, with “(47,50): V/Vax=(Ki+α·[I])/(Ki+[I]),” for “(25,28): v=kcat·(Ki+(1/kcat inh)·[I])/(Ki+[I]),”, “α” for “kcat inh”, “is percentage of” for “is”, “turnover remaining” for “turnover”

Green Monkey (1A3) = Green Monkey (1A3) (Chlorocebus sabaeus, UniProt Z9LO20H8W3); test: Inhibition of SULT1A3 homologues in different species: Green Monkey; type: biochemical
Chain of Green Monkey (1A3) (Z9LO20H8W3 1-295): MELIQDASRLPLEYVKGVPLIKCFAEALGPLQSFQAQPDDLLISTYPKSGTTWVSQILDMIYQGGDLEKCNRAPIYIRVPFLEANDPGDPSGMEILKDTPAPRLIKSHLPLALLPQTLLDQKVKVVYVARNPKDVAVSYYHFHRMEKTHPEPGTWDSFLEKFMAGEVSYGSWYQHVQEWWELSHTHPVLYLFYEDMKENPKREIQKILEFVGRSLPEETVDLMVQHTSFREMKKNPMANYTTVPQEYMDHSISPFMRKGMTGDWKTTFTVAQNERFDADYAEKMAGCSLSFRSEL
Description: (§3) Compounds 12, 23 and 25 were also tested for Inhibition of SULT1A3 in different species.
(§4) Inhibition of SULT1A3 Homologues in Different Species. SULT1A3 is only expressed in humans and higher primates. SULT1D1 is the isoform expressed in dogs and rodents that sulfonates neurotransmitters and is most similar to SULT1A3. Three synthesized allosteres (12, 23, and 25) were tested against both 1A3 and 1D1 from different species in order to explore testing in animal models. […] Mice have been engineered such that their SULT1A1/2 enzymes have been knocked out and replaced with the human versions of those isoforms.

Rhesus Macaque (1A3) = Rhesus Macaque (1A3) (Macaca mulatta, UniProt A0A5F7ZQH3); test: Inhibition of SULT1A3 homologues in different species: Rhesus Macaque; type: biochemical
Chain of Rhesus Macaque (1A3) (A0A5F7ZQH3 1-295): as the sequence (Z9LO20H8W3 1-295) above, with A7T, V15M, C23Y, R230K, Y247F, A278E counted along it
Description: as §3, §4

Mouse (1D1) = Mouse (1D1) (Mus musculus, UniProt Q3UZZ6); test: Inhibition of SULT1A3 homologues in different species: Mouse; type: biochemical
Chain of Mouse (1D1) (Q3UZZ6 whole entry): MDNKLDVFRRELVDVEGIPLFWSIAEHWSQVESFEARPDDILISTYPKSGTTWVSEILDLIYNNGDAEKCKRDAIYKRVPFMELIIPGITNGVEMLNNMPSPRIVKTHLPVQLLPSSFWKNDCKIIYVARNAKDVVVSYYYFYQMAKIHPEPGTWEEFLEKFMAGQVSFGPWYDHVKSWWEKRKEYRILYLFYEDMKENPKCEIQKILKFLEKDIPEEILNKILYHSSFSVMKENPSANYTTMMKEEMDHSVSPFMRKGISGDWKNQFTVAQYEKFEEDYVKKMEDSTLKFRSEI
Description: as §3, §4

Rat (1D1) = target: T2, Rat (1D1) (Rattus norvegicus, UniProt G3V9R3); test: Inhibition of SULT1A3 homologues in different species: Rat; type: biochemical
T2 sequence (G3V9R3 1-295): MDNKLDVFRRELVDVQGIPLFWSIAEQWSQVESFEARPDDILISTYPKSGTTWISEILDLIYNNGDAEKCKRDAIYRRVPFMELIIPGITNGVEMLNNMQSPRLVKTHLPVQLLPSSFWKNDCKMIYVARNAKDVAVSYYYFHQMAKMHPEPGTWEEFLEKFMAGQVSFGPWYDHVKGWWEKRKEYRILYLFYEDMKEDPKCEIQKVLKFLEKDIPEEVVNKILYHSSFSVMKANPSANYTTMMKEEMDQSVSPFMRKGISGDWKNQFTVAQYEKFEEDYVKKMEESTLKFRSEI
Description: as §3, §4

Dog (1D1) = Dog (1D1) (Canis lupus familiaris, UniProt A0A8I3RXJ1); test: Inhibition of SULT1A3 homologues in different species: Dog; type: biochemical
Chain of Dog (1D1) (A0A8I3RXJ1 entry or part of it): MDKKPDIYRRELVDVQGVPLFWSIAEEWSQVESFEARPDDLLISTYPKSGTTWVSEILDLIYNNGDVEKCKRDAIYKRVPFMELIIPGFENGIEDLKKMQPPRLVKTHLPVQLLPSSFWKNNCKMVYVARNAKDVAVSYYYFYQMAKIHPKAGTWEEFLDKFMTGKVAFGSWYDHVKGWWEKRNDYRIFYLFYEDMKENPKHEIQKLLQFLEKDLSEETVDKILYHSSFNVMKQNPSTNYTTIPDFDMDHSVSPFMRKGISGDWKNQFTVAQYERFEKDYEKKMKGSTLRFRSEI
Description: as §4, with “Compounds 12, 23 and 25 were also tested for Inhibition of SULT1A3 in different species. Inhibition” for “Inhibition”

SULT1A3 [2] = target: T1, SULT1A3; test: Pre-steady state binding of PAP to SULT1A3 (stopped-flow fluorescence); parameters: Wild-type and mutant SULT1A3 coding regions were inserted into a pGEX-6P expression vector; N-His/GST/MBP triple-tag (N, cleaved yes); made in house; host or cells: E. coli BL21(DE3)
Description: The effect of CMP8 on PAP binding to SULT1A3 was monitored using a stopped-flow spectrofluorimeter (λex=290 nm, λem≥330 nm (cutoff filter)). […] Each kobs value was determined in triplicate and the averaged values are shown. kon and koff are given, respectively, by the slopes and intercepts obtained from linear least-squares fitting of the kobs vs [PAP] plots.
(§5) Pre-Steady State Binding Studies. The pre-steady state binding of PAP to SULT1A3 was monitored via ligand-induced enzyme fluorescence changes in SULT1A3 using an Applied Photophysics SX20 stopped-flow spectrofluorimeter (32). […] All reactions were pseudo first order in [PAP]. The observed rate constant (kobs) at a given [PAP] was taken as the average of three independent progress curves each obtained from a single-exponential fit of 6-9 averaged, binding progress curves. The rate constants, kon and koff, were obtained from the slopes and intercepts predicted by linear least-squares analysis of four-points kobs vs [PAP] plots.
Given that CMP8 interacts with the SULT1A3 cap, it was reasoned it might inhibit by stabilizing the cap-closed form(s) of the enzyme. To test this hypothesis, the microscopic rate constants for nucleotide binding and release were determined in the presence and absence of saturating CMP8. The binding reactions were monitored via intrinsic fluorescence changes associated with ligand binding (30-32) (see, Methods). The resulting kobs vs [PAP] plots are presented in FIG. 4. kon and koff are obtained, respectively, from the slopes and intercepts of the plots (30,31), see Table C. […] Thus, CMP8 does indeed slow nucleotide release by increasing Kiso and thus stabilizing the closed form of the cap.
as §5, with “(29).” for “(32).”

[3] = ND = inhibition was not detected at 30 μM compound, parentheses one standard error, read-out: SULT1A3 Ki/μM
[4] = saturating CMP8 (1.7 μM, 50×Kd)

Chain of SULT1A1 (P50225 whole entry): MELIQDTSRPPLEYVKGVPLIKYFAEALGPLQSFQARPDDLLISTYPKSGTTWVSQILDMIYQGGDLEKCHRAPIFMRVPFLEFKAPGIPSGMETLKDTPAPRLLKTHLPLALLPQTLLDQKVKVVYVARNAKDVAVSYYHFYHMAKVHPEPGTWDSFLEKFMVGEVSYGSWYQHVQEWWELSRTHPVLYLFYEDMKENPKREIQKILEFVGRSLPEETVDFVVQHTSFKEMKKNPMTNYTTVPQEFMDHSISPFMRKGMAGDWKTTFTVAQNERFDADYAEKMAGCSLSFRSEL

Row | Compound | Ki (SULT1A1) [µM] | inhibition (SULT1A1) [%] | Ki (SULT1A3 [1]; [3]) [µM] | inhibition (SULT1A3 [1]; parentheses one standard error) [%] | other results
1 | COCc1ccc2nc(CC(C)C)ccc2c1 [Compound 3, 2-Isobutyl-6-(methoxymethyl)quinolone] | 5.7 | 10 | 6.1 | 10 | 
2 | Cc1nc2ccc(CO)cc2cc1CC(C)C [Compound 4] | 7.7 | 20 | 7.5 |  | 
3 | CCCn1cc(-c2ccc3ncccc3c2)nn1 [Compound 5, 6-(1-Propyl-1H-1,2,3-triazol-4-yl)quinoline] | 4.7 | 53 | 3.1 | 33 | 
4 | COC(=O)c1ccc2nc3c(cc2c1)C(=O)CC(C)C3 (centres unmarked) [Compound 6, Methyl 6-methyl-8-oxo-5,6,7,8-tetrahydroacridine-2-carboxylate] |  |  | 0.66 | 35 | 
5 | CCCCNC(=O)c1ccc2nc(CC(C)C)ccc2c1 [Compound 7, N-Butyl-2-isobutylquinoline-6-carboxamide] | 5.1 | 67 | 1.3 | 51 | 
6 | CCOC(=O)CCc1ccc2cc(CCC(N)=O)ccc2n1 [Compound 9, Ethyl 3-(6-(3-amino-3-oxopropyl)quinolin-2-yl)propanoate] |  |  | 0.33 | 63 | 
7 | O=C(O)/C=C/c1ccc2ncccc2c1 [Compound 10, (E)-3-(quinolin-6-yl)acrylic acid] | 22 | 30 | 4.1 | 72 | 
8 | CC(C)Cc1ccc2cc(C(N)=O)ccc2n1 [Compound 11, 2-Isobutylquinoline-6-carboxamide] |  |  | 0.86 | 78 | 
9 | CC(C)Cc1ccc2cc(/C=C/C(N)=O)ccc2n1 [Compound 13, (E)-3-(2-Isobutylquinolin-6-yl)acrylamide] | 6.2 | 48 | 0.19 | 65 | 
10 | CC(C)(C)Cc1ccc2cc(CO)ccc2n1 [Compound 18] | 2.5 | 40 |  |  | 
11 | CCCn1cc(-c2ccc3ccc(O)cc3c2)nn1 [Compound 20] | 12.1 | 17 | 2.6 | 16 | 
12 | CC(C)Cc1ccc2cc(/C=C/C(=O)O)cnc2n1 [Compound 24, (E)-3-(7-Isobutylnaphthyridin-3-yl)acrylic acid] |  |  | 3.1 | 29.4 | 
13 | CC(C)Cc1ccc2cc(CCC(N)=O)cnc2n1 [Compound 25] |  |  | 0.017 | 90 | Green Monkey (1A3) % inh (Green Monkey (1A3)): 72 (5) %; Ki (Green Monkey (1A3); parentheses one standard error): 87 nM; Rhesus Macaque (1A3) % inh (Rhesus Macaque (1A3)): 95 (2) %; Ki (Rhesus Macaque (1A3); parentheses one standard error): 25 nM; Mouse (1D1) % inh (Mouse (1D1)): 91 (2) %; Ki (Mouse (1D1); parentheses one standard error): 32 nM; Rat (1D1) % inh (Rat (1D1)): 21 (3) %; Ki (Rat (1D1); parentheses one standard error): 1100 nM; Human (1A3) % inh (SULT1A3 [1]; parentheses one standard error): 90 (3) %; Ki (SULT1A3 [1]; standard error in neighbouring cell, read-out: Human (1A3) Ki): 0.017 µM; Dog (1D1) % inh (Dog (1D1)): 73 (4) %; Ki (Dog (1D1); standard error in neighbouring cell): 52 nM
14 | CC1CC(=O)c2cc3cc(C(N)=O)ccc3nc2C1 (centres unmarked) [Compound 27, 6-Methyl-8-oxo-5,6,7,8-tetrahydroacridine-2-carboxamide] |  |  | 0.11 | 75 | 
15 | CC1Cc2nc3ccc(C(N)=O)cc3cc2C(O)C1 (centres unmarked) [Compound 28, 8-Hydroxy-6-methyl-5,6,7,8-tetrahydroacridine-2-carboxamide] |  |  | 0.085 | 52 | 
16 | Nc1ncnc2c1ncn2[C@@H]1O[C@H](COP(=O)(O)O)[C@@H](OP(=O)(O)O)[C@H]1O [PAP] |  |  |  |  | koff (s^−1), (−) CMP8 (SULT1A3 [2]; nucleotide binding to SULT1A3 without CMP8): 2.7 (0.1) s^−1; kon (μM^−1s^−1), (−) CMP8 (SULT1A3 [2]; nucleotide binding to SULT1A3 without CMP8, parentheses standard error): 6.6 (0.2)^a μM^−1s^−1; koff (s^−1), (+) CMP8 (SULT1A3 [2]; [4]): 1.1 (0.1) s^−1; kon (μM^−1s^−1), (+) CMP8 (SULT1A3 [2]; [4]): 6.3 (0.3) μM^−1s^−1
